The source of these data is US5486595A, “Tumor necrosis factor inhibitors” (Centecor, Inc., priority 1994, dated 1996).

This test concerns the target T1, human TNFα (Homo sapiens, UniProt P01375).
T1 construct: purchased Biosource, Camarillo, Calif
As to the kind of experiment: p55 Receptor/IgG Fusion Protein Binding Assay (inhibition of TNFα capture by p55-Ig coated plate). Conditions: peptide 1 mM, TNFα 25 ng/ml; for inhibition at 1000 µM: read-out: inhibition of binding of TNFα to p55TNFr-IgG chimeric construct.

Where a SMILES comes first, the peptide text is derived from it.

T1 sequence (P01375 77-233 limits assumed): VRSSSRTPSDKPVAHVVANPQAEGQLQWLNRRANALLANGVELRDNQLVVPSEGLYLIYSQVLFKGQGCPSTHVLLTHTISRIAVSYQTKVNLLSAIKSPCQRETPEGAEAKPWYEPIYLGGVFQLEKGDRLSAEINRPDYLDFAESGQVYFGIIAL

Consider `CC(C)[C@H](NC(=O)[C@@H](NC(=O)[C@@H](N)CC(=O)O)[C@@H](C)O)C(=O)N[C@@H](C)C(=O)NCC(=O)N[C@@H](C)C(=O)N[C@@H](CCCNC(=N)N)C(=O)N[C@@H](CCCCN)C(=O)N[C@@H](CC(N)=O)C(=O)N[C@@H](CCC(N)=O)C(=O)N[C@@H](Cc1ccc(O)cc1)C(=O)N[C@@H](CCCNC(=N)N)C(=O)N[C@@H](Cc1c[nH]cn1)C(=O)N[C@@H](Cc1ccc(O)cc1)C(=O)N[C@@H](Cc1c[nH]c2ccccc12)C(N)=O` [SEQ ID NO:9, Aspartyl-threonyl-valyl-alanyl-glycyl-alanyl-arginyl-lysyl-asparaginyl-glutaminyl-tyrosyl-arginyl-histidyl-tyrosyl-tryptophan Amide] (H-DTVAGARKNQYRHYW-NH2), for which the inhibition at 1000 µM came to 30%.

For `CC(C)[C@H](NC(=O)[C@@H](NC(=O)[C@H](CC(=O)O)NC(=O)[C@H](CO)NC(=O)[C@@H](NC(=O)[C@H](CCCCN)NC(=O)[C@@H](N)[C@@H](C)O)[C@@H](C)O)[C@@H](C)O)C(=O)N[C@@H](C)C(=O)N[C@@H](CC(=O)O)C(=O)N[C@@H](CO)C(=O)N[C@@H](C)C(=O)N[C@@H](CCC(=O)O)C(=O)N[C@@H](CC(=O)O)C(=O)N[C@@H](CO)C(=O)N[C@H](C(N)=O)[C@@H](C)O` [SEQ ID NO:33] (H-TKTSDTVADSAEDST-NH2), the inhibition at 1000 µM amounted to 67%.

Regarding “SEQ ID NO:34: peptide of the invention that inhibits TNFα; sequence not printed (SDTVADSAEDSTYTQ)”, the “inhibition of binding of TNFα to p55TNFr-IgG chimeric construct” value (“inhibition of binding of TNFα” for short) came out at 65%.

As to `CC(C)C[C@H](NC(=O)[C@@H](N)Cc1c[nH]cn1)C(=O)N1CCC[C@H]1C(=O)N[C@@H](CCC(N)=O)C(=O)N1CCC[C@H]1C(=O)N[C@H](C(=O)N[C@@H](CO)C(=O)N[C@H](C(=O)N[C@@H](CCCNC(=N)N)C(=O)N[C@@H](CO)C(=O)N[C@@H](CCC(N)=O)C(=O)N[C@@H](Cc1c[nH]cn1)C(=O)N[C@H](C(=O)N[C@@H](CCC(N)=O)C(=O)N1CCC[C@H]1C(N)=O)[C@@H](C)O)[C@@H](C)O)C(C)C` [SEQ ID NO:56] (H-HLPQPVSTRSQHTQP-NH2), the inhibition at 1000 µM is 67%.

As to “SEQ ID NO:38: peptide of the invention that inhibits TNFα; sequence not printed (YTQLWNWVPEALSAG)”, the “inhibition of binding of TNFα” value is listed as 64%.

Consider `CC(C)C[C@H](NC(=O)[C@H](Cc1ccccc1)NC(=O)[C@H](Cc1ccccc1)NC(=O)CNC(=O)[C@H](C)NC(=O)[C@H](Cc1c[nH]cn1)NC(=O)[C@H](C)NC(=O)[C@@H](NC(=O)[C@H](C)NC(=O)[C@@H](NC(=O)[C@@H](N)[C@@H](C)O)C(C)C)[C@@H](C)O)C(=O)N[C@@H](CCCNC(=N)N)C(=O)N[C@@H](CCC(=O)O)C(=O)N[C@@H](CC(N)=O)C(=O)N[C@@H](CCC(=O)O)C(N)=O` [SEQ ID NO:17] (H-TVATAHAGFFLRENE-NH2), for which the inhibition at 1000 µM came to 59%.

Regarding `CC[C@H](C)[C@H](NC(=O)[C@H](CCC(N)=O)NC(=O)[C@@H]1CCCN1C(=O)[C@H](CC(C)C)NC(=O)[C@H](C)NC(=O)[C@H](CC(C)C)NC(=O)[C@H](CCCCN)NC(=O)[C@@H](NC(=O)[C@H](C)NC(=O)[C@H](CCC(=O)O)NC(=O)[C@H](CC(C)C)NC(=O)[C@@H](N)CO)[C@@H](C)O)C(=O)N[C@@H](CCC(=O)O)C(=O)N[C@@H](CC(N)=O)C(=O)N[C@H](C(N)=O)C(C)C` [SEQ ID NO:21, Seryl-leucyl-glutamyl-alanyl-threonyl-lysyl-leucyl-alanyl-leucyl-prolyl-glutaminyl-isoleucyl-glutamyl-asparaginyl-valine Amide] (H-SLEATKLALPQIENV-NH2), the inhibition at 1000 µM came to 50%.

As for `C[C@H](NC(=O)[C@H](CCC(=O)O)NC(=O)[C@H](CCCNC(=N)N)NC(=O)[C@H](C)NC(=O)[C@H](CC(=O)O)NC(=O)[C@@H](NC(=O)[C@H](CC(=O)O)NC(=O)[C@H](CCC(N)=O)NC(=O)CNC(=O)[C@@H]1CCCN1C(=O)CN)[C@@H](C)O)C(=O)N[C@@H](CCC(=O)O)C(=O)N[C@@H](CO)C(=O)NCC(=O)N[C@@H](CO)C(N)=O` [SEQ ID NO:3, Glycyl-prolyl-glycyl-glutaminyl-aspartyl-threonyl-aspartyl-alanyl-arginyl-glutamyl-alanyl-glutamyl-seryl-glycyl-serine Amide] (H-GPGQDTDAREAESGS-NH2), the inhibition at 1000 µM was determined as 53%.

“SEQ ID NO:50: peptide of the invention that inhibits TNFα; sequence not printed (VAIPGNASRDAVATS)”: the “inhibition of binding of TNFα” value is listed as 29%.

Consider `CC(C)[C@H](N)C(=O)N[C@@H](Cc1ccccc1)C(=O)N[C@@H](C)C(=O)N[C@H](C(=O)N[C@@H](CCCCN)C(=O)N[C@H](C(=O)N[C@@H](CO)C(=O)N[C@@H](CC(=O)O)C(=O)N[C@H](C(=O)N[C@H](C(=O)N[C@@H](C)C(=O)N[C@@H](CC(=O)O)C(=O)N[C@@H](CO)C(=O)N[C@@H](C)C(=O)N[C@@H](CCC(=O)O)C(N)=O)C(C)C)[C@@H](C)O)[C@@H](C)O)[C@@H](C)O` [SEQ ID NO:32] (H-VFATKTSDTVADSAE-NH2), for which the inhibition at 1000 µM worked out at 64%.

In the case of “SEQ ID NO:51: peptide of the invention that inhibits TNFα; sequence not printed (PGNASRDAVATSTSP)”, the “inhibition of binding of TNFα” value was 68%.

As to `CC(C)C[C@H](NC(=O)[C@H](C)NC(=O)[C@H](CC(C)C)NC(=O)[C@H](CO)NC(=O)[C@H](C)NC(=O)[C@H](CC(N)=O)NC(=O)[C@H](Cc1ccccc1)NC(=O)[C@H](C)NC(=O)[C@H](CCC(N)=O)NC(=O)[C@H](Cc1ccccc1)NC(=O)[C@H](CC(C)C)NC(=O)[C@H](CC(N)=O)NC(=O)[C@H](CCC(=O)O)NC(=O)[C@@H](N)CO)C(=O)N[C@@H](CC(N)=O)C(N)=O` [SEQ ID NO:24] (H-SENLFQAFNASLALN-NH2), the inhibition at 1000 µM was 21%.

With `CC(C)C[C@H](NC(=O)[C@H](Cc1ccccc1)NC(=O)[C@H](Cc1ccccc1)NC(=O)CNC(=O)[C@H](C)N)C(=O)N[C@@H](CCCNC(=N)N)C(=O)N[C@@H](CCC(=O)O)C(=O)N[C@@H](CC(N)=O)C(=O)N[C@@H](CCC(=O)O)C(=O)N[C@@H](C)C(=O)N[C@H](C(=O)N[C@@H](CO)C(=O)N[C@@H](C)C(=O)N[C@@H](CO)C(=O)N[C@@H](CC(N)=O)C(N)=O)C(C)C` [SEQ ID NO:19] (H-AGFFLRENEAVSASN-NH2), the inhibition at 1000 µM was 53%.

For the compound `CC[C@H](C)[C@H](NC(=O)[C@H](CCC(=O)O)NC(=O)[C@@H](NC(=O)[C@H](CCC(N)=O)NC(=O)CNC(=O)[C@H](CCSC)NC(=O)[C@H](CCC(=O)O)NC(=O)[C@@H](N)CCCCN)C(C)C)C(=O)N[C@@H](CO)C(=O)N[C@@H](CO)C(=O)N[C@@H](C)C(=O)N[C@H](C(=O)N[C@H](C(=O)N[C@@H](CC(=O)O)C(=O)N[C@@H](CCCNC(=N)N)C(N)=O)C(C)C)[C@@H](C)O` [SEQ ID NO:7], the inhibition at 1000 µM amounted to 42%.

For “SEQ ID NO:39: peptide of the invention that inhibits TNFα; sequence not printed (LWNWVPEALSAGSRA)”, the “inhibition of binding of TNFα” value is on record as 42%.

Consider `CC(C)C[C@H](NC(=O)[C@H](C)NC(=O)[C@H](CC(C)C)NC(=O)[C@H](CO)NC(=O)[C@H](C)NC(=O)[C@H](CC(N)=O)NC(=O)[C@H](Cc1ccccc1)NC(=O)[C@H](C)N)C(=O)N[C@@H](CC(N)=O)C(=O)NCC(=O)N[C@H](C(=O)N[C@H](C(=O)N[C@@H](Cc1c[nH]cn1)C(=O)N[C@@H](CC(C)C)C(=O)N[C@@H](CO)C(N)=O)C(C)C)[C@@H](C)O` [SEQ ID NO:14] (H-AFNASLALNGTVHLS-NH2), for which the inhibition at 1000 µM is 29%.

For the compound `C[C@H](NC(=O)[C@@H](NC(=O)[C@H](CO)NC(=O)[C@@H]1CCCN1C(=O)[C@H](CCC(=O)O)NC(=O)[C@@H]1CCCN1C(=O)[C@@H](NC(=O)[C@@H]1CCCN1C(=O)[C@H](CCC(N)=O)NC(=O)[C@@H](NC(=O)[C@H](Cc1c[nH]cn1)NC(=O)[C@H](CCC(N)=O)NC(=O)[C@@H](N)CO)[C@@H](C)O)[C@@H](C)O)[C@@H](C)O)C(=O)N1CCC[C@H]1C(=O)N[C@@H](CO)C(N)=O` [SEQ ID NO:58] (H-SQHTQPTPEPSTAPS-NH2), the inhibition at 1000 µM worked out at 72%.
